Where a name gives a salt, the structure may show the parent alone.
How the values were obtained:
[1] = system: primary cardiomyocytes isolated from rat heart; assay: Respiration in primary cardiomyocytes; type: cell-based; conditions: 20 min exposure
Description: Cardiomyocytes were exposed to the indicated concentration of meclizine for 20 min followed by oxygen measurement in the respiration chamber. Typical respiration traces are shown.
Meclizine was confirmed to shift a cell's relative reliance on OXPHOS versus glycolysis by whole cell bioenergetic kinetic assays. […] This was true in primary cardiomyocytes isolated from rat heart (FIG. 3K) and primary cortical neurons isolated from mouse embryos (FIG. 3L). Cardiomyocytes were exposed to the indicated concentration of meclizine for 20 min followed by oxygen measurement in a respiration chamber. Oxygen consumption rate (OCR) measurements were made following meclizine (5 and 10 μM) or antimycin (1 μM) addition at time 0 (min) in mouse primary cortical neurons obtained from day E14-15 embryos.

AMPK = assay: Western blot detection of AMPK phosphorylation; type: cell-based; conditions: C2C12 myotubes, 24 hours of treatment
Description: The ability of meclizine, S-meclizine and R-meclizine to activate AMPK in C2C12 myotubes was also evaluated using Western blot detection of AMPK phosphorylation in C2C12 myotubes following 24 hours of treatment with R-meclizine (R-Mec), S-meclizine (S-Mec) and the racemic mixture (Rac-Mec).

MCH58 fibroblasts [2] = assay: Global gene expression profile and quantitative RT-PCR; type: cell-based, human
Description: Next, a global gene expression profile was performed on fibroblasts following a six hour meclizine treatment (i.e., a time point having maximal OXPHOS inhibition). Oligonucleotide microarray experiments were conducted as follows. Total RNA was extracted from ˜2 million MCH58 cells with RNeasy mini kit (Qiagen). Cells were either grown in 10 mM glucose or 10 mM galactose for 3 passages and for the drug treated samples, and treated with either 0.1% DMSO or 50 μM meclizine for 6 hours. 10 ug of RNA was used to synthesize cDNA with a T7-(dT)24 primer and the SuperScript one-cycle cDNA synthesis kit (Affymetrix). cRNA labeling, hybridization to human U133 plus 2.0 oligonucleotide array (Affymetrix, CA), washing and staining were performed as recommended by Affymetrix. For each condition, 3 biological replicates were used for the total of 6 arrays. GLS expression was confirmed by quantitative RT-PCR using TaqMan assay (Applied Biosystems).

[3] = system: purified recombinant PCYT2; assay: PCYT2 enzyme assay in vitro; type: biochemical; conditions: 50-1000 μM meclizine or 50-600 μM S-meclizine
Description: FIGS. 16 C-D are line graphs showing that PCYT2 (CTP:phosphoethanolamine cytidylyltransferase 2) is a target of meclizine (16C) and S-meclizine (16D). PCYT2 enzyme assays were carried out in vitro with purified recombinant PCYT2 in the presence of 50-1000 μM meclizine or 50-600 μM of S-meclizine.
CTP:Phosphoethanolamine Cytidylyltransferase (PCYT2) catalyzes the formation of CDP-ethanolamine, which is often the rate regulatory step in the PE-Kennedy pathway. See, e.g., Fullerton et al., J Biol Chem 18; 284(38):25704-13 (2009). To determine whether meclizine affects PCYT2 activity, PCYT2 (CTP:phosphoethanolamine cytidylyltransferase 2) enzyme assays were carried out in vitro with purified recombinant PCYT2 in the presence of 50-1000 μM meclizine or 50-600 μM of S-meclizine. For additional details see Zhu et al., J Lipid Res 49: 2197 (2008).

caspase 3 and caspase 7 = assay: Western blot of cleaved caspase 3 and 7 after serum withdrawal; type: cell-based, murine; conditions: 50 μM, up to 24 hours after serum withdrawal
Description: Western blot analysis was performed as follows. Murine STH^Q111/111 striatal cells expressing mutant huntingtin protein were grown to ˜75% confluency in 15 cm cell culture plate. Then serum containing medium was replaced with serum free media with either 0.1% DMSO or 50 μM meclizine and total protein was extracted at 0, 4, 10 and 24 hours post serum withdrawal and drug treatment in cell lysis buffer (Cell Signaling Cat No. 9803).
Protein concentration was determined using BCA protein assay kit (Thermo Scientific Cat No. 23227). SDS PAGE was performed using NuPAGE 4-12% Bis-Tris gel from Invitrogen (NP0321). 15 μg of protein was loaded per lane. Western blotting was performed as per the standard procedures. Cleaved Caspase 3 (Cat. No. 9661), Cleaved Caspase 7 (Cat. No. 9491), p-ERK ([…]; Cat No. 9803), and AKT (Cat. No. 9803) antibodies were obtained from Cell Signaling. β-Actin antibody was purchased from Sigma (A1978).

[4] = system: C. elegans expressing 128Q huntingtin fragment in touch receptor neurons; type: in vivo
Description: Meclizine was also tested in an animal model of Huntington's disease. Transgenic C. elegans touch receptor neurons express an N-terminal fragment of huntingtin (htt) comprising 128 glutamine repeats, as opposed to seventeen glutamine repeats in the wild type protein. These neurons show polyQ-dependent neuronal dysfunction resulting in defective posterior mechanosensation. Parker et al., Nat Genet 37:349 (2005) Animals co-expressing YFP and N-terminal htt fused to CFP in touch receptor neurons were used for drug testing. See, eg., Parker et al., Proc Natl Acad Sci USA 98:13318 (2001). Synchronized L1 larvae, obtained by hypochlorite extraction, were incubated with drugs in 96 wells plates in 50 μl M9 medium with OP-50 bacteria and […] streptomycin, at 20° C. during 3 days as previously described. Three independent assays were performed and a minimum of 100 worms were tested per dose.
Worms were treated with DMSO or 33 μM meclizine for 3 days. Animals were considered as touch responsive if they reacted after light touch (e.g., by initiating a backward movement). Out of 3 touches, 2 or 3 reactions were regarded as responsive, and 0 or 1 reaction was regarded as unresponsive. Htt aggregation and axonal morphology in PLM neurons were scored using light microscopy as previously described (Parker et al., Proc Natl Acad Sci USA 98:13318 (2001)). Htt aggregation was scored using CFP fluorescence, axonal dystrophy was quantified using YFP fluorescence to detect axonal swelling.
Protein quantity was normalized using an anti-actin antibody (MP Biochemicals 69100).

male C57BL/6 mice = assay: Murine model of stroke (transient middle cerebral artery occlusion); type: in vivo, mouse
[5] = Blood glucose levels in R6 mice; type: in vivo
MCH58 fibroblasts [6] = assay: Glucose versus galactose cell growth screen (metabolic state-dependent lethality); conditions: approximately 10 μM compound, 72 hours; log10 fold change of normalized cell number in glucose versus galactose
Description: The assay included monitoring or measuring cell growth in cells that are grown in glucose (which allows the cell to utilize glycolysis) or in galactose (which switches the cell energy production from glycolysis to the OXPHOS pathway).
The high glucose medium was replaced with 10 mM glucose or 10 mM galactose wherever indicated. All media contained 1 mM pyruvate and 4 mM glutamine.
Cell number quantification high throughput assays were performed as follows. […] 24 hours later, cells were washed twice in PBS and media was replaced with either 10 mM glucose or 10 mM galactose containing media.
Approximately 100 nL of each compound was pin-transferred in duplicate into the plates with a steel pin array using the CyBi-Well robot (CyBio). […] Compound-treated plates were incubated at 37° C. for 72 hours. […] Wells were then washed once and stored in PBS. Cell culture plates were stored at 4° C. until time of imaging, which was at most 24 hours after fixation.
Imaging was performed by Arrayscan VTi automated microscope (ThermoFisher Scientific) with the use of an automated plate stacker. Appropriate filter sets for the detection of the Hoescht fluorescent signal were used. Four non-overlapping images at 5× magnification (NA 0.25) were acquired for a field of view of 1.3 mm×1.3 mm per image. The plate stacker and microscope including an auto-focusing algorithm were controlled entirely with ArrayScan software. Images were captured and stored simultaneously in at least two independent locations. Image analysis was performed using the freely available open-source software package CellProfiler. […] Images were analyzed individually by first identifying nuclei using the Hoescht staining signal.
Total number of nuclei per field were recorded, and the four images per well were totaled to give the cell count per well. Computation was performed using a UNIX computer cluster. Appropriate masking of each nucleus was ensured by visually monitoring each batch at its onset and intermittently throughout the run.
The fibroblast cells were seeded on Day 0 and incubated for 24 hours in standard culture media.
Normalized cell counts were computed separately for each 96-well plate by dividing the cell count of each well with the trimmed mean (the average after discarding the largest and smallest value) of the cell counts for the 16 DMSO treated wells. […] The remaining replicate measurements were averaged, and fold changes were computed as the ratio between the average normalized counts for the glucose and galactose screens. To evaluate statistical significance, Z-scores were computed for each well against the DMSO (null) distribution and averaged Z-scores across replicates. Wells with average Z-score greater than 2.5 were considered significant.
By jointly analyzing the glucose and galactose results, a glucose-galactose cell growth ratio can be calculated (Sglu/gal) that represents the log10 fold-change in cell growth in a glucose rich media divided by the log10 fold-change in cell growth in a galactose rich media. […] Low Sglu/gal scores (e.g., ranging between approximately (−) 0.1 to (−) 0.7) may arise from inhibition of glycolysis or from inhibition of proliferation, since cells grown in glucose-rich media divide more rapidly.

Structure (SMILES): Cc1cccc(CN2CCN(C(c3ccccc3)c3ccc(Cl)cc3)CC2)c1 (racemic) [Meclizine, meclizine hydrochloride]
- respiration in primary cardiomyocytes [1]: inhibits respiration
- AMPK activation (phosphorylation) (AMPK): activate AMPK
- HK2 expression fold change (MCH58 fibroblasts [2]; 50 μM, 6 hours): 1.5 fold
- TXNIP expression downregulated (MCH58 fibroblasts [2]; 50 μM, 6 hours): 35%
- GLS expression downregulated (microarray) (MCH58 fibroblasts [2]; 50 μM, 6 hours, relative to vehicle): ~40%
- reduction in GLS transcript by quantitative real-time PCR (MCH58 fibroblasts [2]; 6 hours of treatment): 50%
- PCYT2 binding and inhibition [3]: binD to, and inhibit
- serum deprivation-induced activation of caspase 3 and caspase 7 (caspase 3 and caspase 7): prevented
- PolyQ protein aggregation ([4]; 33.33 μM): no effects
- transgenic protein expression (worms) ([4]; 33.33 μM): no changes were observed
- axonal swelling ([4]; 33.33 μM, PLM neurons): reduced
- sensory response to tail poke ([4]; mutant PolyQ animals, 3 days): improved the sensory response to tail poke in a dose dependent manner
- concentration of optimal response ([4]; touch response): 33.33 µM
- CBF (cerebral blood flow) (male C57BL/6 mice; 100 mg/kg i.p.): did not differ significantly
- infarct volume (brain) (male C57BL/6 mice; two intraperitoneal injections of 100 mg/kg at 17 and 3 hours before ischemia): significantly lower
- blood glucose levels [5]: reduces blood glucose levels
- Sglu/gal (log10 fold change) Score (MCH58 fibroblasts [6]): 0.16

Source: patent publication US9399032B2, “Methods and compositions for treating degenerative and ischemic disorders” (The General Hospital Corporation, priority 2009, dated 2016)
